Laboratory results reported in patent publication US10501518B2 (priority 2013, dated 2019).

What was measured:
[1] = Calcemic response in mice after subcutaneous injection; format: in vivo; conditions: 20 nmol/kg
Procedure: Compound concentrations were determined by submitting plasma to a cAMP GloSensor assay, quantification of luminescence readout, and conversion to peptide concentration via standard curve. […] See also FIGS. 12A, 12B and 12C.
Mice (C57BL/6, male, age 9-12 weeks) were treated in accordance with the ethical guidelines adopted by Massachusetts General Hospital. […] Blood was withdrawn just prior to injection (t=0) or at times thereafter. Tail vein blood was collected and immediately used for analysis. Blood Ca^2+ concentration was measured with a Chiron Diagnostics model 634 Ca^2+/pH analyzer.

WT human PTHR-1 = molecular target: T1, WT human PTHR-1 (Homo sapiens, UniProt Q03431); test: cAMP GloSensor dose-response in GP-2.3 cells expressing human PTHR-1; format: cell-based; conditions: for cAMP (hPTHR-1) Max: luminescence counts per second relative to PTH(1-34); for cAMP (hPTHR-1) Max / Max: 12-16 minutes after ligand addition; for Fold nM PTH(1-34): EC50 relative to PTH(1-34)
T1 construct: bioactivity of the resulting compound in full-length hPTHR-1 and a truncated version; expressed in transfected cells
T1 sequence (Q03431 27-593): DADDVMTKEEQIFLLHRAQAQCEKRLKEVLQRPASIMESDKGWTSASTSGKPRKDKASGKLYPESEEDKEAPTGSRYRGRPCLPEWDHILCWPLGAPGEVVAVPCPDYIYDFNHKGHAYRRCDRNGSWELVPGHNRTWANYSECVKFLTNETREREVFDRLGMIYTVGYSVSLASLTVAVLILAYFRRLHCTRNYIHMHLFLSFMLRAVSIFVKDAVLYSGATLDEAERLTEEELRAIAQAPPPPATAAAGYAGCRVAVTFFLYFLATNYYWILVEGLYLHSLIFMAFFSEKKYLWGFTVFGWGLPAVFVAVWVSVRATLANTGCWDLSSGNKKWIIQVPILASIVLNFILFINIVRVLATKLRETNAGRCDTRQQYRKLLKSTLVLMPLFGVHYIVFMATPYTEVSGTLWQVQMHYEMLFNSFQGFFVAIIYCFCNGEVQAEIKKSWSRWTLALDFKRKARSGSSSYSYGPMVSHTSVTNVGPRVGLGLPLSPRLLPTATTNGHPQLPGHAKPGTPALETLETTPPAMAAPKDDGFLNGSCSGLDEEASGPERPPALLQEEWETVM
Method in brief: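 Confluent cells preloaded with 0.5 mM d-luciferin at room temperature until luminescence baseline stabilised (30 min), then given varying agonist concentrations. Luminescence time course recorded after α/β-peptide addition. Means ±SEM of n>4 experiments, each in duplicate.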

PTH2R/PTH1R = test: cAMP response selectivity between PTH2R and PTH1R; format: cell-based; conditions: most selective; for cAMP response PTH1R/PTH2R: Table 17
From the text: Selected analogs containing beta-amino acid substitutions selectively signal through one or the other of the two receptors. Without being bound to any underling biological phenomenon or mechanism, PTHR-2 likely serves an alternative function to PTHR-1 as it is highly expressed in the central nervous system. In contrast, PTHR-1 is highly expressed in bone and kidney, but not in the CNS. The analogs disclosed herein are thus useful as therapeutic compounds that a specific agonists or antagonists of PTHR-1 and PTHR-2.

rPTHR-1 = molecular target: T2, rPTHR-1 (Rattus norvegicus, UniProt P25961); test: Washout assay of cAMP response in GR-35 cells; format: cell-based; conditions: for AUC-on / AUC-washout / AUC Ratio: Table 11; for AUC-on: luminescence AUC in the 14 minutes before washout, PTH(1-34), D6, M-PTH(1-34) 0.3 nM, B5 3 nM; for AUC-washout: luminescence AUC in the 120 minutes following washout; for AUC Ratio: ratio of AUC-washout to AUC-on; for cAMP response following washout, in words: rPTHR-1-expressing cells, relative to PTH(1-34)
T2 construct: expressed in transfected cells
T2 sequence (P25961 27-591): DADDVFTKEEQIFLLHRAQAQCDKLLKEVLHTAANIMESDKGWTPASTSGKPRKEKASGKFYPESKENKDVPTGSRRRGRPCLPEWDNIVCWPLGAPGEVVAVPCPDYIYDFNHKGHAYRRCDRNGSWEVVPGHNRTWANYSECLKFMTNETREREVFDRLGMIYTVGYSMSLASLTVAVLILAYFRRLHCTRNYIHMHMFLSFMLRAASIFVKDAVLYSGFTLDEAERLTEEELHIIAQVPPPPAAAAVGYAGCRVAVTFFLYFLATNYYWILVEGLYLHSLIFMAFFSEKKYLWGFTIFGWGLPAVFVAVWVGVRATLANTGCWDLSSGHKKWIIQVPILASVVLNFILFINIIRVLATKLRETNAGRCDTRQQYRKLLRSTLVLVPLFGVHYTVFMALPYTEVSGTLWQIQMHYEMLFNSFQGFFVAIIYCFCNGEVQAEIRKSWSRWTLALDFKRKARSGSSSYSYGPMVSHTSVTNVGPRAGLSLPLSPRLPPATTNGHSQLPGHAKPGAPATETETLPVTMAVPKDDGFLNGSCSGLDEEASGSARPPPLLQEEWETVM
Procedure: FIGS. 11A and 11B present the results of rPTHR-1 washout experiments. Assays of cAMP accumulation were performed using HEK-293-derived cell lines stably transfected to express the luciferase-based cAMP GloSensor™-brand protein along with WT-rPTHR-1 (GR-35 cells). Data are means (±SEM) of n=3 (M-PTH) or n=5 experiments, each performed in quadruplicate. […] Ligand was applied and luminescence was recorded for 14 minutes thereafter. FIG. 11B depicts data for the accumulation of cAMP following ligand wash-out in cells expressing the rPTHR-1. The cells from FIG. 11A were removed from the plate reader at the end of the 14-min “ligand-on” phase, rinsed twice to remove unbound ligand, treated with fresh medium containing luciferin, and luminescence was again recorded for an additional 120 min of “wash-out.” Luminescence was recorded using a PerkinElmer Envision plate reader; cells were preloaded with luciferin for 30 min before ligand addition.
HEK293 cell monolayers expressing rat PTHR-1 (GR35 cells) were treated with ligand in for 14 minutes. This buffer was then discarded, and the cell monolayer was rinsed (2×). Buffer containing luciferin was introduced for 120 minutes. Luminescence response was recorded before and after washout, with luminescence readings recorded every 2 minutes. The area under the curve (AUC) for luminescence response curve was determined using GraphPad Prism. See […] for a graphs depicting the average of n=3 (M-PTH) or n=5 washout experiments. See Table 11 for a description of composite data from n=3 or 5 washout experiments.
Data were processed by using the Microsoft Excel and GraphPad Prism 4.0 software packages. Data from binding and cAMP dose-response assays were analyzed using a sigmoidal dose-response model with variable slope. Washout responses were assessed by quantifying the area under the luminescence response curve (AUC) following washout. Post-washout AUC was normalized by dividing the post-washout AUC by the pre-washout AUC. Paired data sets were statistically compared by using Student's t test (two-tailed) assuming unequal variances for the two sets.

[2] = Table 6, GP-2.3 cells, mean ± SEM

Compound	calcemic response (blood Ca^2+ concentration) [1]	EC50 (WT human PTHR-1; Table 1, GP-2.3 cells, read-out: cAMP (hPTHR-1) EC50) [nM]	cAMP (hPTHR-1) Max (WT human PTHR-1; Table 1)	Fold nM PTH(1-34) (WT human PTHR-1; Table 6)	Max (WT human PTHR-1; [2])	cAMP response PTH1R/PTH2R (PTH2R/PTH1R)	AUC-on (rPTHR-1)	AUC-washout (rPTHR-1)	AUC Ratio (rPTHR-1)	cAMP response following washout, in words (rPTHR-1)	pEC50 (WT human PTHR-1; [2])	cAMP response PTH2R/PTH1R (PTH2R/PTH1R; Table 16)
CC[C@H](C)[C@H](NC(=O)[C@H](CCC(=O)O)NC(=O)[C@H](CO)NC(=O)[C@@H](NC(=O)[C@@H](N)CO)C(C)C)C(=O)N[C@@H](CCC(N)=O)C(=O)N[C@@H](CC(C)C)C(=O)N[C@@H](CCSC)C(=O)N[C@@H](Cc1c[nH]cn1)C(=O)N[C@@H](CC(N)=O)C(=O)N[C@@H](CC(C)C)C(=O)NCC(=O)N[C@@H](CCCCN)C(=O)N[C@@H](Cc1c[nH]cn1)C(=O)N[C@@H](CC(C)C)C(=O)N[C@@H](CC(N)=O)CC(=O)N[C@@H](CO)C(=O)N[C@@H](CCSC)C(=O)N[C@@H](CCC(=O)O)C(=O)N[C@@H](CCCNC(=N)N)CC(=O)N[C@H](C(=O)N[C@@H](CCC(=O)O)C(=O)N[C@@H](Cc1c[nH]c2ccccc12)C(=O)N[C@H](CC(=O)N[C@@H](CCCNC(=N)N)C(=O)N[C@@H](CCCCN)C(=O)N[C@@H](CCCCN)C(=O)N[C@H](CC(=O)N[C@@H](CCC(N)=O)C(=O)N[C@@H](CC(=O)O)C(=O)N[C@H](C(=O)N[C@@H](CCC(N)=O)CC(=O)N[C@@H](CC(N)=O)C(=O)N[C@@H](Cc1ccccc1)C(N)=O)C(C)C)CC(C)C)CC(C)C)C(C)C [B5]	more transient rise in Ca^2+ concentration relative to PTH(1-34)	0.11	0.98	0.63	212 ± 30 luminescence counts per second × 10^−3	43	130,000 ± 50,000	84,000 ± 23,000	0.80 ± 0.16	short-lived cAMP response	–	–
CC[C@H](C)[C@H](NC(=O)[C@H](CCC(=O)O)NC(=O)[C@H](CO)NC(=O)[C@@H](NC(=O)[C@@H](N)CO)C(C)C)C(=O)N[C@@H](CCC(N)=O)C(=O)N[C@@H](CC(C)C)C(=O)N[C@@H](CCSC)C(=O)N[C@@H](Cc1cnc[nH]1)C(=O)N[C@@H](CC(N)=O)C(=O)N[C@@H](CC(C)C)C(=O)NCC(=O)N[C@@H](CCCCN)C(=O)N[C@H](CC(=O)N[C@@H](CC(C)C)C(=O)N[C@@H](CC(N)=O)C(=O)N[C@@H](CO)C(=O)N[C@@H](CCSC)CC(=O)N[C@@H](CCC(=O)O)C(=O)N[C@@H](CCCNC(=N)N)C(=O)N[C@H](C(=O)N[C@@H](CCC(=O)O)CC(=O)N[C@@H](Cc1c[nH]c2ccccc12)C(=O)N[C@@H](CC(C)C)C(=O)N[C@@H](CCCNC(=N)N)C(=O)N[C@@H](CCCCN)CC(=O)N[C@@H](CCCCN)C(=O)N[C@@H](CC(C)C)C(=O)N[C@@H](CCC(N)=O)C(=O)N[C@@H](CC(=O)O)CC(=O)N[C@H](C(=O)N[C@@H](Cc1cnc[nH]1)C(=O)N[C@@H](CC(N)=O)C(=O)N[C@H](CC(N)=O)Cc1ccccc1)C(C)C)C(C)C)Cc1c[nH]c2ccccc12 [D6]	sustained, with no diminution six hours after injection	–	0.87	0.76	189 ± 29 luminescence counts per second × 10^−3	33	100,000 ± 36,000	130,000 ± 37,000	1.50 ± 0.35	comparable to that of PTH(1-34)	9.89 ± 0.08	–
CC[C@H](C)[C@H](NC(=O)[C@H](CCC(=O)O)NC(=O)[C@H](CO)NC(=O)[C@@H](NC(=O)[C@@H](N)CO)C(C)C)C(=O)N[C@@H](CCC(N)=O)C(=O)N[C@@H](CC(C)C)C(=O)N[C@@H](CCSC)C(=O)N[C@@H](Cc1cnc[nH]1)C(=O)N[C@@H](CC(N)=O)C(=O)N[C@@H](CC(C)C)C(=O)NCC(=O)N[C@@H](CCCCN)C(=O)N[C@@H](Cc1cnc[nH]1)C(=O)N[C@@H](CC(C)C)C(=O)N[C@@H](CC(N)=O)C(=O)N[C@@H](CO)C(=O)N[C@@H](CCSC)C(=O)N[C@@H](CCC(=O)O)C(=O)N[C@@H](CCCN=C(N)N)C(=O)N[C@H](C(=O)N[C@@H](CCC(=O)O)C(=O)N[C@@H](Cc1c[nH]c2ccccc12)C(=O)N[C@@H](CC(C)C)C(=O)N[C@@H](CCCN=C(N)N)C(=O)N[C@@H](CCCCN)C(=O)N[C@@H](CCCCN)C(=O)N[C@@H](CC(C)C)C(=O)N[C@@H](CCC(N)=O)C(=O)N[C@@H](CC(=O)O)C(=O)N[C@H](C(=O)N[C@@H](Cc1cnc[nH]1)C(=O)N[C@@H](CC(N)=O)C(=O)N[C@@H](Cc1ccccc1)C(=O)O)C(C)C)C(C)C [PTH(1-34), reference compound]	transient rise in the blood concentration of Ca^2+, which peaks after about one hour	–	1.00	–	217 ± 20 luminescence counts per second × 10^−3	0.9	92,000 ± 34,000	100,000 ± 25,000	–	–	–	1.1
